We go through five compounds from patent US20150051283A1, “COMPOSITION AND METHOD FOR INHIBITION OF PKNG FROM MYCOBACTERIUM TUBERCULOSIS” (priority 2013, published 2015).

Assay type in all cases: biochemical
In assay [1] the target is T1, PknG Rbx domain (Mycobacterium tuberculosis, UniProt P9WI73).
T1 construct: Full-length PknG was overexpressed in Escherichia coli BL21(DE3) cells; made in house; host or cells: Escherichia coli BL21(DE3)
The experiment in a line: Iron release from Rbx domain of PknG (BPS spectrophotometric determination). Conditions: 50 μM of OA-NO2.

Assay [2] addresses T2, PknG (Mycobacterium tuberculosis, UniProt P9WI73).
T2 construct: Full-length PknG was overexpressed in Escherichia coli BL21(DE3) cells; made in house; host or cells: Escherichia coli BL21(DE3)
The experiment in a line: PknG autophosphorylation (MALDI-TOF MS of tryptic phosphopeptides). Conditions: 30 μM, 10 min before autophosphorylation reaction. The protocol: (§1) FIGS. 4A-4D are a series of graphs depicting PknG kinase activity inhibition by OA-NO2, in which FIG. 4A depicts GarA phosphorylation by PknG by linear MALDI-TOF mass spectrum of: GarA (m/z 17145, dashed line), GarA phosphorylated by PknG using a molar ratio PknG:GarA of 1:20 (m/z 17222, grey line) and GarA phosphorylated by PknG pretreated with 50 μM OA-NO2 for 10 minutes (m/z 17143, black line), FIG. 4B is a series of three panels depicting PknG autophosphorylation with an upper panel illustrating linear MALDI-TOF spectrum of native PknG after tryptic digestion showing basal autophoshporylation pattern. Unphosphorylated peptide (m/z 5395.8), monophosphorylated (m/z 5475.4) and diphosphorylated species (m/z 5555.1) are detected as expected, a middle panel depicting linear MALDI-TOF spectrum of PknG after incubation with ATP and Mn^2+ and further typtic digestion (autophoshorylation positive control). […] After 10 minutes of incubation enzyme activities were determined. Samples were analyzed in triplicates; and FIG. 4D depicts time dependent inhibition of PknG by OA-NO2. […] At the indicated time points aliquots of control and treated PknG were removed, and enzyme inhibition was determined using Kinase Glo® by comparison with control activity. Samples were analyzed in triplicates. […]

Assay [3] concerns the target T2, PknG.
Assay [4] has as its target T2, PknG. The experiment in a line: Time course of PknG inhibition, Kinase Glo Plus luminescent kinase assay. The following applies: PknG 10 μM, 50 μM OA-NO2, pre-incubation 0 to 30 min, 25° C. The protocol:
as §1
On the technique in general: In Kinase-Glo more light means more ATP remaining.

The target in assay [5] is T2, PknG. The experiment in a line: Reversibility of PknG inhibition by thiol reagents (DTT, GSH). The following applies: for effect of thiol reagent per se on control PknG kinase activity: 42 mM DTT or 24 mM GSH.

T2 sequence (P9WI73 whole entry): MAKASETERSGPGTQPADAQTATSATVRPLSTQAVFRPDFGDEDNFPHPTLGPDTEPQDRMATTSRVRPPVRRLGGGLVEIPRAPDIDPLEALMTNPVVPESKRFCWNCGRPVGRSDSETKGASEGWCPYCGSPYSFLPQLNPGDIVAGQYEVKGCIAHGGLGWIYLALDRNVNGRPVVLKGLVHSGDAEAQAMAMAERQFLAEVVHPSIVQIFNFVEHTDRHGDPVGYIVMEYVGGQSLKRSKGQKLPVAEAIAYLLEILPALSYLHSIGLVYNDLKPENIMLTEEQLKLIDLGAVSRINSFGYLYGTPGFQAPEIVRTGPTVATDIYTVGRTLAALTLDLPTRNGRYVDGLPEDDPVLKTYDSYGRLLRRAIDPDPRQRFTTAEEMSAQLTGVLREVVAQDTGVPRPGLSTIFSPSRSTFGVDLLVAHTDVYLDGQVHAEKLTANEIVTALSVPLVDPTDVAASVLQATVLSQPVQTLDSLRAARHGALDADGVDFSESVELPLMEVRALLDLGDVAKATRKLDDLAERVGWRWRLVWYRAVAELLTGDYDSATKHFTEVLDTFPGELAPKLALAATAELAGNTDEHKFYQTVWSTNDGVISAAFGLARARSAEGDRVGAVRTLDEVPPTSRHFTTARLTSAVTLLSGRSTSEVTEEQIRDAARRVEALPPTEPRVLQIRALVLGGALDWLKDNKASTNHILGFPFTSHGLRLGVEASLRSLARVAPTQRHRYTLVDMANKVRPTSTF
T1 sequence (P9WI73 whole entry, the tested form may be a part): as the sequence (P9WI73 whole entry) above

On to “9- and 10-nitro-octadeca-9-cis-enoic acid [OA-NO2]”, for which the “iron present at the Rbx domain released” value in assay [1] is 70%. The “autocatalytic (autophosphorylation) activity” value in assay [2] is given as “inhibited”. For the same compound, the “ability to phosphorylate GarA” value in assay [3] (30 μM, molar ratio OA-NO2:PknG 3:1, 10 minutes of preincubation) is on record as “clearly decreased”. Moreover, the IC50 in assay [3] (PknG 8 μM, OA-NO2 0 to 80 μM, 10 min pre-incubation, 70 mM ammonium bicarbonate pH 8.0, 25° C, read-out: concentration at which 50% of enzyme inhibition was reached) came out at 35 µM. Moreover, the “kinase activity of PknG” value in assay [3] (micromolar concentrations, molar excess ranging from 1:1 to 1:3) was “noticeably inhibited”. The “kinase activity versus pre-incubation time” value in assay [4] is listed as “decreased kinase activity in a time-dependent manner”. Further, the “effect of OA-NO2 on PknG activity (reversibility)” value in assay [5] is “irreversible”.

Turning to `O[C@@H](CS)[C@@H](O)CS` [DTT], the “effect of thiol reagent per se on control PknG kinase activity” value in assay [5] was “no effect”.

For the compound `N[C@@H](CCC(=O)N[C@@H](CS)C(=O)NCC(=O)O)C(=O)O` [GSH], the “effect of thiol reagent per se on control PknG kinase activity” value in assay [5] was “no effect”.

As for `NC(=O)CI` [IAM, iodoacetamide, reference compound], the “effect on kinase activity” value in assay [3] (IAM treatment (up to 150 μM, PknG 10 μM), only free Cys156 modified) is “without affecting kinase activity”.

As for `CCCCCCCCC=CCCCCCCCC(=O)O` [oleic acid, 9-octadecenoic acid, reference compound], the “effect on kinase activity (control)” value in assay [3] (equivalent concentrations to OA-NO2, data not shown) is “no effect”.
